Fold change (FC), EC50 and inhibition data for two molecules are collected here from ChEMBL document CHEMBL5653631, “A Potent and Selective ULK1 Inhibitor Suppresses Autophagy and Sensitizes Cancer Cells to Nutrient Stress” (iScience, 2018).

As usually defined, the EC50 is the concentration that produces a half-maximal response. The low end stands for higher potency in that assay, the high end for lower potency in that assay. What is called inhibition is the relative decrease from the control value, in per cent.

Assay [1] deals with Wee1-like protein kinase 2 (Homo sapiens) (UniProt P0C1S8). The assay can be described thus: Inhibition of human recombinant Wee1B at 40 nM related to control ULK1.
The target in assay [2] is Dual specificity mitogen-activated protein kinase kinase 1 (Homo sapiens) (UniProt Q02750). The assay can be described thus: Inhibition of human recombinant MAP2K1 at 40 nM related to control ULK1.
The target in assay [3] is T1, Dual specificity protein kinase TTK (Homo sapiens) (UniProt P33981).
T1 sequence (whole entry): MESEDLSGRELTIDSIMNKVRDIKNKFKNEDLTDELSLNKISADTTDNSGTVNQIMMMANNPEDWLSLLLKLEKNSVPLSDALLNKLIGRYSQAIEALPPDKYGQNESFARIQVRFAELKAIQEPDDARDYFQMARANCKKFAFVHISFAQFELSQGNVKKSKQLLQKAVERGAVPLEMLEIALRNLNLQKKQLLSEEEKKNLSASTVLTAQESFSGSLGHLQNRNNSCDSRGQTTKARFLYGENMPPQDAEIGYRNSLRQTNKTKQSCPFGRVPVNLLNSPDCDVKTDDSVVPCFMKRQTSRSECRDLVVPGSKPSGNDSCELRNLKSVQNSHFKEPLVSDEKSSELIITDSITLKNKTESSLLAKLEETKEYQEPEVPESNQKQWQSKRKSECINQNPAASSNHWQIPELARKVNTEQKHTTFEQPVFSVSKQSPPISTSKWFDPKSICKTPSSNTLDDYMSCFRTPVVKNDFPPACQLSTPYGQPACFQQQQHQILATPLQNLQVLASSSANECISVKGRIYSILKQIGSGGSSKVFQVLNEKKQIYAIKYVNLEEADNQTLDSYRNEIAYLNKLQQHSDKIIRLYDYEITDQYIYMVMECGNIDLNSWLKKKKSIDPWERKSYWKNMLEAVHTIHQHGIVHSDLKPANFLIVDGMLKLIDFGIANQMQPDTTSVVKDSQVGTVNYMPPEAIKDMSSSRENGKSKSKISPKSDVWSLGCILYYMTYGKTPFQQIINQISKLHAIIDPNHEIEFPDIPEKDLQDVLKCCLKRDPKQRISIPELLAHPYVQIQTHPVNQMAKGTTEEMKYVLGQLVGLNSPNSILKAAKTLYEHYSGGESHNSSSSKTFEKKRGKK
The assay can be described thus: Inhibition of human recombinant TTK at 40 nM related to control ULK1.

For assay [4], the target named is Serine/threonine-protein kinase PAK 2 (Homo sapiens) (UniProt Q13177). The assay is described as follows: Inhibition of human recombinant PAK2 at 40 nM related to control ULK1.
Assay [5] deals with Serine/threonine-protein kinase ULK1 (Homo sapiens, UniProt O75385). The assay can be described thus: Inhibition of ULK1 phosphorylation at Ser15 residue in HEK293 cells incubated for 1 hr by chemiluminescence based immunoblotting analysis. The format is cell-based, HEK293T. On the technique in general: Immunoblotting shows a protein as a band on a membrane.
The target of assay [6] is T2, Tyrosine-protein kinase ZAP-70 (Homo sapiens) (UniProt P43403).
T2 sequence (whole entry): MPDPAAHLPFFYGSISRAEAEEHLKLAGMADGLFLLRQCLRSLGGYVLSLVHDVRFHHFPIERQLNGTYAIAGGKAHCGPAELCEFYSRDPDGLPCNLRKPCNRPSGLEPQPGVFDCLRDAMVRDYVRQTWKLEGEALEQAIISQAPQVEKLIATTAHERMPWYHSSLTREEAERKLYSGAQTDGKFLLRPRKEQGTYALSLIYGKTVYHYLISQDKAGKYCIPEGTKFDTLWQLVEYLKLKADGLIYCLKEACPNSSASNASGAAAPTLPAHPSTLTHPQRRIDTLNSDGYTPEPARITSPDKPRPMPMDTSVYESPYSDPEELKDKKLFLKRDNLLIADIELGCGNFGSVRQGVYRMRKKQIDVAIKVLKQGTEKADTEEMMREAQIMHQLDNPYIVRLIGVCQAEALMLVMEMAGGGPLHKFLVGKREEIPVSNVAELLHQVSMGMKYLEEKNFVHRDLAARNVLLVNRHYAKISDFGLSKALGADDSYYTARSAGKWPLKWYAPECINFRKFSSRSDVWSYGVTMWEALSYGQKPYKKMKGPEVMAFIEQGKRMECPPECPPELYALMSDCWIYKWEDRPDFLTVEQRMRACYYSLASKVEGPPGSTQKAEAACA
The assay can be described thus: Inhibition of human recombinant ZAP70 at 15 nM in presence of ATP by radiometric assay relative to control.

The target in assay [7] is Aurora kinase B (Homo sapiens) (UniProt Q96GD4). The assay can be described thus: Inhibition of human recombinant AurB at 15 nM related to control ULK1.
Assay [8] deals with Mitogen-activated protein kinase kinase kinase 9 (Homo sapiens) (UniProt P80192). The assay is described as follows: Inhibition of human recombinant MLK1 at 15 nM in presence of ATP by radiometric assay relative to control.
Assay [9] addresses T3, Ephrin type-A receptor 1 (Homo sapiens) (UniProt P21709).
T3 sequence (whole entry): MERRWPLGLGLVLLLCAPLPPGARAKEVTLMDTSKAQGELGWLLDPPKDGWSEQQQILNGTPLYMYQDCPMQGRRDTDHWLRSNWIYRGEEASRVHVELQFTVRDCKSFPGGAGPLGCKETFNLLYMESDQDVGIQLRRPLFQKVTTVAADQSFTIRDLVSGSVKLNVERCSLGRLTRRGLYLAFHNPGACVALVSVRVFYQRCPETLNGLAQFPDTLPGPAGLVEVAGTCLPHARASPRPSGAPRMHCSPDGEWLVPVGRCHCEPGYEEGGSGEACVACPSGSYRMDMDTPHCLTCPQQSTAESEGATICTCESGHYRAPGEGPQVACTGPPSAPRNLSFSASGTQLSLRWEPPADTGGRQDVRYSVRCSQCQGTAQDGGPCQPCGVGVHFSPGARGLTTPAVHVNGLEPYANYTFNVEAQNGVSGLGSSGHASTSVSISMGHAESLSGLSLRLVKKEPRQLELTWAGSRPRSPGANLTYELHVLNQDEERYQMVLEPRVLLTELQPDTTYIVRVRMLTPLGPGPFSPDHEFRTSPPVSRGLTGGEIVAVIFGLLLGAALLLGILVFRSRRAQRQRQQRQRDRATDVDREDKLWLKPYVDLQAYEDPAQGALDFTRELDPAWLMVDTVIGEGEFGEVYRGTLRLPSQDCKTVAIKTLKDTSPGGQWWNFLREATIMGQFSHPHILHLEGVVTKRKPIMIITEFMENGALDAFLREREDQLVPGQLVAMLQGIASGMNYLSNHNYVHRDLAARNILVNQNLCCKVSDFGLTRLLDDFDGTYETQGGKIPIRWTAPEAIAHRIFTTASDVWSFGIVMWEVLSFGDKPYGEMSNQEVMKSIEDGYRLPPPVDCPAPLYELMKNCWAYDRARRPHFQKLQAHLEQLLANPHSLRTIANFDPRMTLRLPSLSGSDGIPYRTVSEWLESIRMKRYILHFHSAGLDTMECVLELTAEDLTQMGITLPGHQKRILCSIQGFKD
The assay is described as follows: Inhibition of human recombinant EphA1 at 15 nM in presence of ATP by radiometric assay relative to control.

Sequence of Serine/threonine-protein kinase PAK 2 (Homo sapiens) (Q13177 whole entry): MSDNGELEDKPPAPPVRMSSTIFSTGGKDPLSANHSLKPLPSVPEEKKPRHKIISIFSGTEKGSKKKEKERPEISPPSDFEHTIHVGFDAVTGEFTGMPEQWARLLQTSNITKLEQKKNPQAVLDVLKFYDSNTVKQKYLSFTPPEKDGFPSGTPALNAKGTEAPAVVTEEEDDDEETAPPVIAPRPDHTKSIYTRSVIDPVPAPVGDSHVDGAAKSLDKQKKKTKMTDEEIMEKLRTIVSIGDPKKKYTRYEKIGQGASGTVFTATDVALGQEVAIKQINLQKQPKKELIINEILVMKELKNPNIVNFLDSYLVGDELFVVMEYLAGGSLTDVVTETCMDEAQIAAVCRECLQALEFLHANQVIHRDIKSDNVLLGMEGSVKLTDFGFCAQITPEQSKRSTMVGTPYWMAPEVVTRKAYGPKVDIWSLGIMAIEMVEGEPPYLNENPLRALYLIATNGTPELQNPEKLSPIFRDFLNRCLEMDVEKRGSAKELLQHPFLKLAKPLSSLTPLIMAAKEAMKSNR
Sequence of Dual specificity mitogen-activated protein kinase kinase 1 (Homo sapiens) (Q02750 whole entry): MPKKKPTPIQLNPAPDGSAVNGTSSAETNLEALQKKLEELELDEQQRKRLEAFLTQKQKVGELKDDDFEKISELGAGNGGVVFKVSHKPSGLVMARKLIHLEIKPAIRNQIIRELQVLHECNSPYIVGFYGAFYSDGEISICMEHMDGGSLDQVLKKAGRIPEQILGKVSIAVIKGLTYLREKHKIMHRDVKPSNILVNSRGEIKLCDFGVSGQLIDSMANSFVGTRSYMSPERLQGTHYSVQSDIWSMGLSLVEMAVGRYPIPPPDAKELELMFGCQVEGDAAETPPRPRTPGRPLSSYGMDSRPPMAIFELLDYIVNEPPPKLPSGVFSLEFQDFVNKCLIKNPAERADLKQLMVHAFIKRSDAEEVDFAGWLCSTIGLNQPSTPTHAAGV
Sequence of Aurora kinase B (Homo sapiens) (Q96GD4 whole entry): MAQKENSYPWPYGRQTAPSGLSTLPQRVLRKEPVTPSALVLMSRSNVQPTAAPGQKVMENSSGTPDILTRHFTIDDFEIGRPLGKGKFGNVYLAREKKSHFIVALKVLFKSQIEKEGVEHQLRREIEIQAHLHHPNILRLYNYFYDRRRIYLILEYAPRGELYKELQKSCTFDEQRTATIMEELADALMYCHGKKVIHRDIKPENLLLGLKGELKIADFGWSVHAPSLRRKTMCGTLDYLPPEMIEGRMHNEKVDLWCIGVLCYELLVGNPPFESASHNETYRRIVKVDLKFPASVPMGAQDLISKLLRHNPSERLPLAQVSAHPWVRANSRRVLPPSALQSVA
Sequence of Wee1-like protein kinase 2 (Homo sapiens) (P0C1S8 whole entry, looked up): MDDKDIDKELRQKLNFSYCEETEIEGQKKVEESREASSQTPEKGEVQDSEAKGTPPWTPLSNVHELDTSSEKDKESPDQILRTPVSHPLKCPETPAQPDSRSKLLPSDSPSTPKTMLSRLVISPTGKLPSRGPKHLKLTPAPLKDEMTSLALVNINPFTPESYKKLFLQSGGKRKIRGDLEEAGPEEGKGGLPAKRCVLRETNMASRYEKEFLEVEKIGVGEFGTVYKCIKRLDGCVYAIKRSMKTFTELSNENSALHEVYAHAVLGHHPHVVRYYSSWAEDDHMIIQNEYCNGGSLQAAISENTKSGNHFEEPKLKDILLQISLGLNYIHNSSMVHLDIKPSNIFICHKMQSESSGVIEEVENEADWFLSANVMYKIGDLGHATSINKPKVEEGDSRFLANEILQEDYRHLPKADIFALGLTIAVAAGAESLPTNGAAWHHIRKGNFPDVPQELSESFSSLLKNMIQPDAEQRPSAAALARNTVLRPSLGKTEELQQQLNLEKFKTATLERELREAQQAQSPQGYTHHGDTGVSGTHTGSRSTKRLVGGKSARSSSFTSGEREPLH
Sequence of Mitogen-activated protein kinase kinase kinase 9 (Homo sapiens) (P80192 whole entry, looked up): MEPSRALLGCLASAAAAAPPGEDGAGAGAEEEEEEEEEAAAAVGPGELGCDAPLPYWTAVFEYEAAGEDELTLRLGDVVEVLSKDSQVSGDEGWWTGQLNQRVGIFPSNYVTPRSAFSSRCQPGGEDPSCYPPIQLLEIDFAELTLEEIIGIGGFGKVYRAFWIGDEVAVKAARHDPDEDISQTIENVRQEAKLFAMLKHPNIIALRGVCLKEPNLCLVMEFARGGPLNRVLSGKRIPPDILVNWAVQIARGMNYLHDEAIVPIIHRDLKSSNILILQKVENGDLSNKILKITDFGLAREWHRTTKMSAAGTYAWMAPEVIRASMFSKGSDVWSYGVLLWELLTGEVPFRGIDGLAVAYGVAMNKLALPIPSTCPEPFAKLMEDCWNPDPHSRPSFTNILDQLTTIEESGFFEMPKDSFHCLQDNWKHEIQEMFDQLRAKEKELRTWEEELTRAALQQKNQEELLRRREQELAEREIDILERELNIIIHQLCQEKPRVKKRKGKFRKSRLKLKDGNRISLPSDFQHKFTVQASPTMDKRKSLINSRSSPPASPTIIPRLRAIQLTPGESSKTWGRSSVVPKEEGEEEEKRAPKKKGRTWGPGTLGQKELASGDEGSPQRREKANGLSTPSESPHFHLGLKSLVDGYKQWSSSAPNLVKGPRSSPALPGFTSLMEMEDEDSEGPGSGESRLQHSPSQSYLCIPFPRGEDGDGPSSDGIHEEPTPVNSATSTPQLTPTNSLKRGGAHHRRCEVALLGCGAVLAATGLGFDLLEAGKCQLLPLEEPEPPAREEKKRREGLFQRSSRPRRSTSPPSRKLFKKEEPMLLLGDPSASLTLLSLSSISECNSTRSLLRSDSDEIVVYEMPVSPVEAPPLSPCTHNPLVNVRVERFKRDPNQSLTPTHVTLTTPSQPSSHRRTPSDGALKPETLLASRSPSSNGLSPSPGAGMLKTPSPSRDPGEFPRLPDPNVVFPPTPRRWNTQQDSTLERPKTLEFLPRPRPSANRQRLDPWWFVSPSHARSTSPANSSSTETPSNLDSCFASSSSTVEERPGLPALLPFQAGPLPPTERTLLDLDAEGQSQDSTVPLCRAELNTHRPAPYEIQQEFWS
Sequence of Serine/threonine-protein kinase ULK1 (O75385 whole entry): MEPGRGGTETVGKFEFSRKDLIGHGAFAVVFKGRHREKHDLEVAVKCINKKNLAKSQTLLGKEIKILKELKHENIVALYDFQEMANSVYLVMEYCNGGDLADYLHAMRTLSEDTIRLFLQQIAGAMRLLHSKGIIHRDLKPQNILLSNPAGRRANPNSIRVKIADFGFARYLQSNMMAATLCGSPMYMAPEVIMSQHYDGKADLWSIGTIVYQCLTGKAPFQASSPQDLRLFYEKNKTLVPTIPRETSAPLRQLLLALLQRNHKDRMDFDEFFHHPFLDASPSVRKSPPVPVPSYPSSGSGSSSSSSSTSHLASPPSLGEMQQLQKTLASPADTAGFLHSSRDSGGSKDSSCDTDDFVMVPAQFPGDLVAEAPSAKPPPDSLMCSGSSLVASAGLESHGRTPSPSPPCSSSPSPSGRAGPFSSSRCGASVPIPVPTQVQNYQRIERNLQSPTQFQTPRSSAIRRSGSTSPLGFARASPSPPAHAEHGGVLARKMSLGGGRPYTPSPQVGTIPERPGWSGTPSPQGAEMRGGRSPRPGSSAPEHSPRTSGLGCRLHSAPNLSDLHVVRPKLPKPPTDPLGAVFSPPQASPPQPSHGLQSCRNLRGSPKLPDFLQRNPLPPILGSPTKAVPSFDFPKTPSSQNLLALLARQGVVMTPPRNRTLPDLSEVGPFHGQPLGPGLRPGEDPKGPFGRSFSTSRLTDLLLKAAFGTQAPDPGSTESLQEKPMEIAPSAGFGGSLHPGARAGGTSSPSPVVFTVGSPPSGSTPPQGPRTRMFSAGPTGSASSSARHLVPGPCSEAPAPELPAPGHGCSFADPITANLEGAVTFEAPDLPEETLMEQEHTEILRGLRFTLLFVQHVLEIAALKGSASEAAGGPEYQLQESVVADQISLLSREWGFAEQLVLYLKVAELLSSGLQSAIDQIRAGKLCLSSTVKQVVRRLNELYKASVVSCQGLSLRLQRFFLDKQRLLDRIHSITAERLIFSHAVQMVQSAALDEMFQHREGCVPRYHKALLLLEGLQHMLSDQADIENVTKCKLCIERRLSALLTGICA

Consider `O=C(N[C@@H](C1CC1)C(F)(F)F)c1cc(-c2cnn3cc(-c4ccc(F)cc4)cnc23)cs1`, for which the fold change (FC) in assay [1] amounted to 0; in assay [2], 0; in [3], 0.45; in [4], 0.
In [5], `CC(C)[C@H](NC(=O)c1cc(-c2cnn3cc(-c4ccc(OCCN5CCCCC5)cc4)cnc23)cs1)C(F)(F)F` displayed an EC50 of 0.083 µM. Besides, the inhibition in assay [6], in assay [8] and in assay [9] was 0% each time. Also, in assay [7], the fold change (FC) is 0.2.
